{
  "source": "paper PMC9405466",
  "about": "“Mechanistic Insight into the Enzymatic Inhibition of β-Amyrin against Mycobacterial Rv1636: In Silico and In Vitro Approaches” (Biology, 2022)",
  "key": {"Rv1636 [1]": {"molecular_target": "T1, Rv1636 (Mycobacterium tuberculosis, UniProt P9WFC9)", "T1 sequence (P9WFC9 whole entry, looked up)": "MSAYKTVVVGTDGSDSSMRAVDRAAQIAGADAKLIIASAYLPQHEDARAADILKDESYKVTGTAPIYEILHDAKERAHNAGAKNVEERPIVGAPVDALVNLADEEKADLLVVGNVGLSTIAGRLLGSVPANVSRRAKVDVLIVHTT", "experiment": "isothermal titration calorimetry (VP-ITC), one-site model", "format": "binding", "settings": "read-out: Ka1 (converted)", "text": "isothermal titration calorimetry (VP-ITC), one-site model on Rv1636"}, "Rv1636 [2]": {"molecular_target": "T1, Rv1636", "experiment": "malachite green ATPase inhibition assay", "format": "biochemical", "settings": "ATP as substrate; TMD buffer pH 8.0, 10 mM MgCl2"}, "[3]": {"test_system": "Nc1ncnc2c1ncn2[C@@H]1O[C@H](COP(=O)(O)OP(=O)(O)OP(=O)(O)O)[C@@H](O)[C@H]1O", "experiment": "purified protein", "settings": "50 mM Tris pH 8.0, 10 mM MgCl2, 1 mM DTT, 0-80 µM ATP, 5 µM Rv1636, 1 h"}},
  "data": [
    {"molecule": "CC1(C)CC[C@]2(C)CC[C@]3(C)C(=CC[C@@H]4[C@@]5(C)CC[C@H](O)C(C)(C)[C@@H]5CC[C@]43C)[C@@H]2C1", "note": "[β-Amyrin]", "values": [
      {"measurement": "Kd", "setting": "Rv1636 [1]", "value": 17.8, "unit": "µM"},
      {"measurement": "ATPase activity", "setting": "Rv1636 [2]", "value": "in the presence of an increasing concentration of β-Amyrin, the result showed a consistent reduction"}
    ]},
    {"molecule": "Rv1636 (Mycobacterium tuberculosis H37Rv)", "values": [
      {"measurement": "Km", "setting": "[3]", "value": "5.187 ± 0.281", "unit": "µM"},
      {"measurement": "kcat", "setting": "[3]", "value": "0.000883 ± 1.7e-05", "unit": "s⁻¹"}
    ]}
  ]
}
